We go through three compounds from patent US9167818B2, “Active compounds combinations comprising prothioconazole and fluxapyroxad” (BAYER CROPSCIENCE AG, priority 2010, dated 2015).

This test has as its system Alternaria solani. As to the kind of experiment: Alternaria test (tomatoes) / preventive. It is filed as in vivo, Alternaria solani on tomatoes. To be noted: single active, preventive spray, evaluated 3 days after inoculation. From the text: The expected activity for a given combination of two active compounds can be calculated as follows (cf. Colby, S. R., “Calculating Synergistic and Antagonistic Responses of Herbicide Combinations”, Weeds 1967, 15, 20-22): If • X is the efficacy when active compound A is applied at an application rate of m ppm (or g/ha), • Y is the efficacy when active compound B is applied at an application rate of n ppm (or g/ha), • E is the efficacy when the active compounds A and B are applied at application rates of m and n ppm (or g/ha), respectively, and then
The degree of efficacy, expressed in % is denoted. 0% means an efficacy which corresponds to that of the control while an efficacy of 100% means that no disease is observed.
If the actual fungicidal activity exceeds the calculated value, then the activity of the combination is superadditive, i.e. a synergistic effect exists. In this case, the efficacy which was actually observed must be greater than the value for the expected efficacy (E) calculated from the abovementioned formula.
To produce a suitable preparation of active compound, 1 part by weight of active compound is mixed with the stated amounts of solvent and emulsifier, and the concentrate is diluted with water to the desired concentration. To test for preventive activity, young plants are sprayed with the preparation of active compound at the stated rate of application. After the spray coating has dried on, the plants are inoculated with an aqueous spore suspension of Alternaria solani. The plants are then placed in an incubation cabinet at approximately 20° C. and a relative atmospheric humidity of 100%. The test is evaluated 3 days after the inoculation. 0% means an efficacy which corresponds to that of the untreated control while an efficacy of 100% means that no disease is observed.

`Fc1ccc([C@]2(Cn3cncn3)O[C@H]2c2ccccc2Cl)cc1` (racemic) [Epoxiconazole, epoxiconazole]: the “Efficacy in % found” value reads like this: (application rate 0.5 ppm a.i.) 41%; (application rate 1 ppm a.i.) 53%; (application rate 2 ppm a.i.) 59%.

For `OC(Cc1ccccc1Cl)(Cn1[nH]cnc1=S)C1(Cl)CC1` (stereo not drawn) [(A) Prothioconazole, 2-[2-(1-chlorocyclopropyl)-3-(2-chlorophenyl)-2-hydroxypropyl]-1,2-dihydro-3H-1,2,4-triazole-3-thione], the “Efficacy in % found” value (application rate 0.5 ppm a.i.) is recorded as 0%, the “Efficacy in % found” value (application rate 1 ppm a.i.) came out at 18% and the “Efficacy in % found” value (application rate 2 ppm a.i.) is 41%.

`Cn1cc(C(=O)Nc2ccccc2-c2cc(F)c(F)c(F)c2)c(C(F)F)n1` [(B) Fluxapyroxad, 3-(difluoromethyl)-1-methyl-N-(3′,4′,5′-trifluorobiphenyl-2-yl)pyrazole-4-carboxamide]: the “Efficacy in % found” value by setting is: (application rate 0.25 ppm a.i.) 62%; (application rate 0.5 ppm a.i.) 65%; (application rate 1 ppm a.i.) 87%.
